Data from ChEMBL document CHEMBL5046240, “Design, synthesis, and evaluation of potent RIPK1 inhibitors with in vivo anti-inflammatory activity” (Eur J Med Chem, 2022).

How the values were obtained:
L929 = test: Anti-necroptic activity in mouse L929 cells assessed as TNFalpha/Z-VAD (TSZ) induced necroptosis by measuring cell viability preincubated for 1 hr followed by TSZ addition and measured after 24 hrs by celltiter-glo luminescent cell viability assay; type: functional, cell-based
HT-29 = test: Anti-necroptic activity in human HT-29 cells assessed as TNFalpha/Z-VAD (TSZ) induced necroptosis by measuring cell viability preincubated for 1 hr followed by TSZ addition ans measured after 24 hrs by celltiter-glo luminescent cell viability assay; type: functional, cell-based
[1] = Metabolic stability in human liver microsomes assessed as half life by LC-MS/MS analysis; type: ADME

SMILES | EC50 (L929) [µM] | EC50 (HT-29) [µM] | half-life [1] [min]
CC(=O)Nc1nc2ccc(-c3cc(NC(=O)OC4CCCCC4)c(C)cn3)cc2s1 | 0.015 | 0.073 | –
Cc1ncc(-c2ccc3nc(NC(=O)C4CC4)sc3c2)cc1NC(=O)OC1CCC(F)(F)CC1 | 0.002 | 0.0061 | 43
CC(=O)Nc1cn2cc(-c3cnc(C)c(NC(=O)OC4CCCCC4)c3)ccc2n1 | 0.045 | 0.097 | –
CCC(C)OC(=O)Nc1cc(-c2ccc3nc(NC(=O)C4CC4)sc3c2)cnc1C (stereo not drawn) | – | 0.017 | 14
CCOC(=O)Nc1nc2ccc(-c3cnc(C)c(NC(=O)OC4CCCCC4)c3)cc2s1 | – | 0.053 | –
Cc1ncc(-c2ccc3nc(NC(=O)C4CC4)sc3c2)cc1NC(=O)OC1CC(C)OC(C)C1 (stereo not drawn) | 0.0052 | 0.0048 | 12
CC(=O)Nc1nc2ccc(-c3cnc(C)c(NC(=O)OC4CCCCC4)c3)cn2n1 | – | > 1 | –
Cc1ncc(-c2ccc3nc(N)sc3c2)cc1NC(=O)OC1CCCCC1 | – | 0.1 | –
Cc1ncc(-c2ccc3nc(NC(=O)C4CC4)sc3c2)cc1NC(=O)OC1CCCC1 | 0.0083 | 0.0089 | 5.7
COc1ncc(-c2ccc3nc(NC(C)=O)sc3c2)cc1NC(=O)OC1CCCCC1 | – | 0.182 | –
CNc1nc2ccc(-c3cnc(C)c(NC(=O)OC4CCCCC4)c3)cc2s1 | – | > 1 | –
CC(=O)Nc1nc2ccc(-c3ccc(C)c(NC(=O)OC4CCCCC4)n3)cc2s1 | – | 0.65 | –
CC(=O)Nc1nc2cc(-c3cnc(C)c(NC(=O)OC4CCCCC4)c3)ccn2n1 | – | > 1 | –
Cc1ncc(-c2ccc3nc(NC(=O)C4CC4)sc3c2)cc1NC(=O)OC1CCC1 | – | 0.016 | –
CC(=O)Nc1cn2nc(-c3cnc(C)c(NC(=O)OC4CCCCC4)c3)ccc2n1 | – | 0.097 | –
CC(=O)Nc1nc2ccc(-c3cc(NC(=O)OC4CCCCC4)c(C)nn3)cc2s1 | – | 0.206 | –
CC(=O)Nc1nc2ccc(-c3cnc(C)c(NC(=O)OC4CCCCC4)c3)nc2s1 | 0.03 | 0.13 | –
CCC(=O)Nc1nc2ccc(-c3cnc(C)c(NC(=O)OC4CCCCC4)c3)cc2s1 | – | 0.038 | –
CNC(=O)Nc1nc2ccc(-c3cnc(C)c(NC(=O)OC4CCCCC4)c3)cc2s1 | – | 0.007 | –
CC(=O)Nc1nc2ccc(-c3cnc(C)c(NC(=O)OC4CCCCC4)c3)cc2s1 | 0.013 | 0.023 | –
CCc1ncc(-c2ccc3nc(NC(C)=O)sc3c2)cc1NC(=O)OC1CCCCC1 | 0.15 | 0.074 | –
CC(=O)Nc1nc2cnc(-c3cnc(C)c(NC(=O)OC4CCCCC4)c3)cc2s1 | – | > 1 | –
Cc1ncc(-c2ccc3nc(NS(C)(=O)=O)sc3c2)cc1NC(=O)OC1CCCCC1 | – | > 1 | –
Cc1ncc(-c2ccc3nc(NC(=O)C4CC4)sc3c2)cc1NC(=O)OC1CCCOC1 (stereo not drawn) | – | 0.027 | 15
Cc1ncc(-c2ccc3nc(NC(=O)C4CC4)sc3c2)cc1NC(=O)OC1CCCCC1 | 0.0029 | 0.0016 | 6.5
Cc1ncc(-c2ccc3nc(NC(=O)c4ccccc4)sc3c2)cc1NC(=O)OC1CCCCC1 | – | 0.052 | –
CC(=O)Nc1nc2ccc(-c3cnc(C#N)c(NC(=O)OC4CCCCC4)c3)cc2s1 | – | 0.534 | –
CC(=O)Nc1nc2ncc(-c3cnc(C)c(NC(=O)OC4CCCCC4)c3)cc2s1 | – | > 1 | –
